The record followed here is patent publication US8188090B2, “Naphthylacetic acids” (Hoffman-La Roche Inc., priority 2008, dated 2012).

This experiment concerns the target T1, human CRTH2 (Homo sapiens, UniProt Q9Y5Y4).
T1 sequence (Q9Y5Y4 1-395): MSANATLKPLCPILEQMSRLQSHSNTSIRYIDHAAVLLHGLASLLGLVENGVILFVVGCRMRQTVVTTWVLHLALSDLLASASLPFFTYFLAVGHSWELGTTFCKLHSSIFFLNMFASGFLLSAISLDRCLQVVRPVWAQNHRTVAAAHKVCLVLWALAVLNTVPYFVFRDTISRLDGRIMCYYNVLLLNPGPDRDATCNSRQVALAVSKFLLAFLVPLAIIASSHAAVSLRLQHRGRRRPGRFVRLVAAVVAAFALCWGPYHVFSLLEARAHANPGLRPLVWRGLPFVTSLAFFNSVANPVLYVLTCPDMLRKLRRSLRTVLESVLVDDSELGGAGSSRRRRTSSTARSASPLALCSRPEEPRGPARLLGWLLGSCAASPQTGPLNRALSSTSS
The experiment in a line: Human CRTH2 Receptor Binding Assay (whole cell, [3H]ramatroban). Details: expressed in transfected cells; host or cells: CHO-K1. Particulars: whole CHO-K1 cells stably expressing human CRTH2 and G-alpha16; 20 nM [3H]ramatroban; 1 hour, room temperature. The source says:
A whole cell receptor binding assay using [^3H]ramatroban as the competing radioactive ligand was employed to evaluate the compound binding activity to human CRTH2. The radioactive ligand [^3H]ramatroban was synthesized according to Sugimoto et. al. (Eur. J. Pharmacol. 524, 30-37, 2005) to a specific activity of 42 Ci/mmol.
A cell line stably expressing human CRTH2 was established by transfecting CHO-K1 cells with two mammalian expression vectors that harbored human CRTH2 and G-alpha16 cDNAs, respectively, using FuGene® 6 transfection reagent (from Roche). Stable clones expressing CRTH2 were selected by staining each clone with BM16 (BD Pharmingen™ from BD Biosciences, a division of Becton, Dickinson and Company), which is a rat monoclonal antibody to human CRTH2. The cells were maintained as monolayer cultures in Ham's F-12 medium containing 10% fetal bovine serum, 100 units/mL penicillin, 100 μg/mL streptomycin, 2 mM glutamine, 0.5 mg/mL G418 (geneticin) for CRTH2, and 0.2 mg/mL hygromycin-B (for G-alpha 16). For whole cell receptor binding assay, the monolayer cells were rinsed once with PBS (phosphate buffered saline), dissociated using ethylenediaminetetraacetate (Versene™ EDTA from Lonza Inc.), and suspended in PBS containing 10 mM MgCl2 and 0.06% BSA (bovine serum albumin) at 1.5×10^6 cells/mL.
The binding reactions (0.2 mL) were performed in 96-well plates at room temperature in PBS containing 1.5×10^5 cells, 10 mM MgCl2, 0.06% BSA, 20 nM [^3H]ramatroban, and test compound at various concentrations. After 1 hour of binding reactions, the cells were harvested on GF™/B filter microplates (microtiter plates with embedded glass fiber from PerkinElmer, Inc.) and washed 5 times with PBS using a Filtermate™ Harvester (a cell harvester that harvests and washes cells from microplates from PerkinElmer, Inc.). The radioactivities bound to the cells were determined using a microplate scintillation counter (TopCount® NXT, from PerkinElmer, Inc.) after adding 50 μL of Microscint™ 20 scintillation fluid (from PerkinElmer, Inc.) to each well of the filter plates. The radioactivity from non-specific binding was determined by replacing compound with 10 μM of 15(R)-15-methyl PGD2 (from Cayman Chemical Company) in the reaction mixtures. The radioactivity bound to the cells in the absence of compound (total binding) was determined by replacing compound with 0.25% of DMSO (dimethyl sulfoxide) in the reaction mixture. Specific binding data were obtained by subtracting the radioactivity of non-specific binding from each binding data.
The IC50 value is defined as the concentration of the tested compound that is required for 50% inhibition of total specific binding. In order to calculate the IC50 value, the percent inhibition data were determined for 7 concentrations for each compound. The percent inhibition for a compound at each concentration was calculated according to the following formula, [1-(specific binding in the presence of compound)/(total specific binding)]×100. The IC50 value was then obtained by fitting the percent inhibition data to a sigmoidal dose-response (4 parameter logistic) model in the XLfit® software Excel add-in program [from ID Business Solutions Ltd., model 205, where F(x)=(A+(B−A)/(1+((C/x)^D)))].
Broadly, the IC50 is the concentration at which inhibition is half-maximal. Read a high IC50 as weaker potency in that assay. Compound `Cc1c(CC(=O)O)cc2ccc(F)cc2c1C(=O)N1CCN(S(C)(=O)=O)CC1` [Example 1-3, [6-Fluoro-4-(4-methanesulfonyl-piperazine-1-carbonyl)-3-methyl-naphthalen-2-yl]-acetic acid] gave an IC50 of 21.2 nM.
On to `CCS(=O)(=O)N1CCN(C(=O)c2c(C)c(CC(=O)O)cc3ccc(F)cc23)CC1` [Example 1-1, [4-(4-Ethanesulfonyl-piperazine-1-carbonyl)-6-fluoro-3-methyl-naphthalen-2-yl]-acetic acid], for which the IC50 stood at 19.2 nM.
Next, `Cc1c(CC(=O)O)cc2ccc(F)cc2c1C(=O)N1CC2(C1)CN(S(=O)(=O)Cc1ccccc1)C2` [Example 1-11, [6-Fluoro-3-methyl-4-(6-phenylmethanesulfonyl-2,6-diaza-spiro[3.3]heptane-2-carbonyl)-naphthalen-2-yl]-acetic acid]: 88.3 nM; `CCC(=O)N1CCC(Oc2cc(CC(=O)O)cc3ccc(F)cc23)CC1` [Example 5-2, [6-Fluoro-4-(1-propionyl-piperidin-4-yloxy)-naphthalen-2-yl]-acetic acid]: 120 nM; `O=C(O)Cc1cc(OC2CCN(C(=O)NCCc3ccccc3)CC2)c2cc(F)ccc2c1` [Example 6-5, [6-Fluoro-4-(1-phenethylcarbamoyl-piperidin-4-yloxy)-naphthalen-2-yl]-acetic acid]: 4 nM.
The compound `O=C(O)Cc1cc(C(=O)N2CCN(S(=O)(=O)c3ccccc3)CC2)c2cc(C(F)(F)F)ccc2c1` [Example 1-18, [4-(4-Benzenesulfonyl-piperazine-1-carbonyl)-6-trifluoromethyl-naphthalen-2-yl]-acetic acid] registered an IC50 of 6 nM.
In turn, `O=C(O)Cc1cc(C(=O)N2CCN(S(=O)(=O)c3ccccc3)CC2)c2cc(OC(F)(F)F)ccc2c1` [Example 1-19, [4-(4-Benzenesulfonyl-piperazine-1-carbonyl)-6-trifluoromethoxy-naphthalen-2-yl]-acetic acid] registered an IC50 of 1.7 nM.
`Cc1c(CC(=O)O)cc2ccc(F)cc2c1C(=O)N1CCN(S(=O)(=O)c2ccc(F)cc2)CC1` [Example 1-12, {6-Fluoro-4-[4-(4-fluoro-benzenesulfonyl)-piperazine-1-carbonyl]-3-methyl-naphthalen-2-yl}-acetic acid] showed an IC50 of 8.3 nM.
In turn, `Cc1c(CC(=O)O)cc2ccc(F)cc2c1C(=O)N1CCN(c2cc(C(F)(F)F)cc(C(F)(F)F)c2)CC1` [Example 2-11, {4-[4-(3,5-Bis-trifluoromethyl-phenyl)-piperazine-1-carbonyl]-6-fluoro-3-methyl-naphthalen-2-yl}-acetic acid] registered an IC50 of 201 nM.
Compound `O=C(O)Cc1cc(OC2CCN(S(=O)(=O)c3cccc(F)c3)CC2)c2cc(F)ccc2c1` [Example 4-7, {6-Fluoro-4-[1-(3-fluoro-benzenesulfonyl)-piperidin-4-yloxy]-naphthalen-2-yl}-acetic acid] had an IC50 of 5 nM.
Take `Cc1c(CC(=O)O)cc2ccc(F)cc2c1C(=O)N1CCN(c2ccc(C#N)cc2)CC1` [Example 2-24, {4-[4-(4-Cyano-phenyl)-piperazine-1-carbonyl]-6-fluoro-3-methyl-naphthalen-2-yl}-acetic acid]: the IC50 stood at 22 nM.
With `CC(C)S(=O)(=O)N1CCC(Oc2cc(CC(=O)O)cc3ccc(F)cc23)CC1` [Example 4-3, {6-Fluoro-4-[1-(propane-2-sulfonyl)-piperidin-4-yloxy]-naphthalen-2-yl}-acetic acid], the IC50 was determined as 30.5 nM.
Next, `Cc1c(CC(=O)O)cc2ccc(F)cc2c1C(=O)N1CCN(c2ncccn2)CC1` [Example 2-5, [6-Fluoro-3-methyl-4-(4-pyrimidin-2-yl-piperazine-1-carbonyl)-naphthalen-2-yl]-acetic acid]: 276 nM; `Cc1c(CC(=O)O)cc2ccc(F)cc2c1C(=O)N1CC2(C1)CN(S(=O)(=O)c1ccccc1)C2` [Example 1-10, [4-(6-Benzenesulfonyl-2,6-diaza-spiro[3.3]heptane-2-carbonyl)-6-fluoro-3-methyl-naphthalen-2-yl]-acetic acid]: 207 nM; `O=C(O)Cc1cc(OC2CCN(C(=O)Nc3cccc(F)c3)CC2)c2cc(F)ccc2c1` [Example 6-3, {6-Fluoro-4-[1-(3-fluoro-phenylcarbamoyl)-piperidin-4-yloxy]-naphthalen-2-yl}-acetic acid]: 3 nM.
With `O=C(O)Cc1cc(OC2CCN(C(=O)C3CC3)CC2)c2cc(F)ccc2c1` [Example 5-4, [4-(1-Cyclopropanecarbonyl-piperidin-4-yloxy)-6-fluoro-naphthalen-2-yl]-acetic acid], the IC50 is 67.8 nM.
Then `COc1cccc(N2CCN(C(=O)c3c(C)c(CC(=O)O)cc4ccc(F)cc34)CC2)c1` [Example 2-9, {6-Fluoro-4-[4-(3-methoxy-phenyl)-piperazine-1-carbonyl]-3-methyl-naphthalen-2-yl}-acetic acid], with 63.1 nM; and `Cc1c(CC(=O)O)cc2ccc(F)cc2c1C(=O)N1CCN(S(=O)(=O)C(C)C)CC1` [Example 1-4, {6-Fluoro-3-methyl-4-[4-(propane-2-sulfonyl)-piperazine-1-carbonyl]-naphthalen-2-yl}-acetic acid], with 15.5 nM; and `Cc1c(CC(=O)O)cc2ccc(F)cc2c1C(=O)N1CCN(S(=O)(=O)c2ccc(F)cc2F)CC1` [Example 1-17, {4-[4-(2,4-Difluoro-benzenesulfonyl)-piperazine-1-carbonyl]-6-fluoro-3-methyl-naphthalen-2-yl}-acetic acid], with 3.7 nM.
As to `Cc1c(CC(=O)O)cc2ccc(F)cc2c1C(=O)N1CCN(S(=O)(=O)c2ccc(F)c(F)c2)CC1` [Example 1-15, {4-[4-(3,4-Difluoro-benzenesulfonyl)-piperazine-1-carbonyl]-6-fluoro-3-methyl-naphthalen-2-yl}-acetic acid], the IC50 came out at 2.6 nM.
In turn, `Cc1c(CC(=O)O)cc2ccc(F)cc2c1C(=O)N1CCN(S(=O)(=O)C2CCCC2)CC1` [Example 1-8, [4-(4-Cyclopentanesulfonyl-piperazine-1-carbonyl)-6-fluoro-3-methyl-naphthalen-2-yl]-acetic acid] displayed a 50% inhibitory concentration (IC50) of 6.9 nM.
For `O=C(O)Cc1cc(OC2CCN(C(=O)c3ccccc3F)CC2)c2cc(F)ccc2c1` [Example 5-7, {6-Fluoro-4-[1-(2-fluoro-benzoyl)-piperidin-4-yloxy]-naphthalen-2-yl}-acetic acid], the IC50 was 19.4 nM.
Next, `CCCS(=O)(=O)N1CCN(C(=O)c2cc(CC(=O)O)cc3ccc(F)cc23)CC1` [Example 1-7, {6-Fluoro-4-[4-(propane-1-sulfonyl)-piperazine-1-carbonyl]-naphthalen-2-yl}-acetic acid]: 6.5 nM; `CC(C)C(=O)N1CCC(Oc2cc(CC(=O)O)cc3ccc(F)cc23)CC1` [Example 5-3, [6-Fluoro-4-(1-isobutyryl-piperidin-4-yloxy)-naphthalen-2-yl]-acetic acid]: 141 nM.
Then `O=C(O)Cc1cc(OC2CCN(S(=O)(=O)Cc3ccccc3)CC2)c2cc(F)ccc2c1` [Example 4-10, [6-Fluoro-4-(1-phenylmethanesulfonyl-piperidin-4-yloxy)-naphthalen-2-yl]-acetic acid], with 2.7 nM; and `O=C(O)Cc1cc(OC2CCN(C(=O)c3ccccc3)CC2)c2cc(F)ccc2c1` [Example 5-6, [4-(1-Benzoyl-piperidin-4-yloxy)-6-fluoro-naphthalen-2-yl]-acetic acid], with 13.4 nM.
